# Active and inactive are the calls of the source. The calls are words filed in the database; no cut-off is given here.
# What was measured:
# [1] = Inhibition of PDGF-dependent PDGFR-mediated cell proliferation in rat A10 cells; assay type: cell-based
# [2] = molecular target: T1, Platelet-derived growth factor receptor beta (Homo sapiens, UniProt P09619); assay: Inhibition of recombinant cytoplasmic domain of PDGFRbeta expressed in baculovirus infected Sf21 insect cells assessed as tyrosine phosphorylation treated 30 hrs after infection measured after 48 hrs of post infection by Western blotting
# [3] = Inhibition of PDGF-dependent PDGFR autophosphorylation in rat A10 cells; assay type: cell-based
# [4] = molecular target: T1, Platelet-derived growth factor receptor beta; assay: Inhibition of recombinant cytoplasmic domain of PDGFRbeta expressed in baculovirus infected Sf21 insect cells using poly(Glu4,Tyr1) and [gamma-33P]ATP at 100 uM by SDS-PAGE based scintillation counting
# [5] = molecular target: T1, Platelet-derived growth factor receptor beta; assay: Inhibition of recombinant cytoplasmic domain of PDGFRbeta expressed in baculovirus infected Sf21 insect cells using 10 fold less poly(Glu4,Tyr1) and [gamma-33P]ATP at 100 uM by SDS-PAGE based scintillation counting
# [6] = molecular target: T1, Platelet-derived growth factor receptor beta; assay: Inhibition of recombinant cytoplasmic domain of PDGFRbeta autophosphorylation expressed in baculovirus infected Sf21 insect cells using [gamma-33P]ATP by SDS-PAGE based scintillation counting
# T1 sequence (P09619 whole entry, the tested form may be a part): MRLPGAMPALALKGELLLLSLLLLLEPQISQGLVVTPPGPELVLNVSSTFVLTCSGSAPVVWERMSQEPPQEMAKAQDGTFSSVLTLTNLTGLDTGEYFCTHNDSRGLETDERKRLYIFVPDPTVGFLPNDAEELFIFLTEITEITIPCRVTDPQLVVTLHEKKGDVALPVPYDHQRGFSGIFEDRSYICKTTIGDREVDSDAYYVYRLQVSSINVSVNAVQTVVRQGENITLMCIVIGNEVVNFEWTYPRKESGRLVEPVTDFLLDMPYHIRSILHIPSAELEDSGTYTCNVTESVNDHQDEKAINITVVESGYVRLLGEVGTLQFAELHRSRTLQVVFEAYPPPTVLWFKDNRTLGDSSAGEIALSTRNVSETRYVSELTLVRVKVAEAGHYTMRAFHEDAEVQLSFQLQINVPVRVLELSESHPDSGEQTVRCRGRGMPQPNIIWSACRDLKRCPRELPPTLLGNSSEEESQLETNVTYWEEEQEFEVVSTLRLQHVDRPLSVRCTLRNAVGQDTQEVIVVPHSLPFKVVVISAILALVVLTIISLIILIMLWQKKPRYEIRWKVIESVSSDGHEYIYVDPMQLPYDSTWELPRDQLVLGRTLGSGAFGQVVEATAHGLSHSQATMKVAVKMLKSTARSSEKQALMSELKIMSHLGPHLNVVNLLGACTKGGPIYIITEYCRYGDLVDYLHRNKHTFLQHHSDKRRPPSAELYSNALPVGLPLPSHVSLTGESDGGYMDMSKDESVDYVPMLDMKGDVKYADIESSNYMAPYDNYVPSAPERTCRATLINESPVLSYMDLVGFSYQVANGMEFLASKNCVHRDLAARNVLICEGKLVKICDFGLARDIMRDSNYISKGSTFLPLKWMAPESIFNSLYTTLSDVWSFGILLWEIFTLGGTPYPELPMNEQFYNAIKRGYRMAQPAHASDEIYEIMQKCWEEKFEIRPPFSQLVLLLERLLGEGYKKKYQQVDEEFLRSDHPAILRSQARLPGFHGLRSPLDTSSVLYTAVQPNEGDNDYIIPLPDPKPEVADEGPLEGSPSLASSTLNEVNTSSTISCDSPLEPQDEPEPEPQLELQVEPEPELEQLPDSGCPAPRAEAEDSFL
smiles,measurement,setting,value
COc1ccc2[nH]c3c4[nH]c5ccc(OC)cc5c4c4c(c3c2c1)C(=O)NC4=O [GW296115X],IC50,[1],10 nM
same,IC50,[2],2000 nM
same,inhibition,[2],Dose-dependent effect
same,IC50,[3],15 nM
same,inhibition,[4],inactive
same,inhibition,[5],inactive
same,IC50,[6],1800 nM
same,inhibition,[6],Dose-dependent effect
